Columns and labels:
hERG-receptor = hERG-receptor (Homo sapiens (Human), UniProt Q12809); assay: HERGBD: inhibition of specific 3H-Dofetilide binding to the hERG-receptor; conditions: HEK cell membranes with human ERG, Hill-plot 2-parameter-model
Procedure: Inhibition of Specific Binding to the hERG-Receptor (HERGBD)
A HEK cell line with stable transfected human ERG receptor was used for the assay. The cells were grown adherently and maintained in DULBECCOS' MEM medium with 10% FBS, 1% non-essential amino acids, 1% Penicillin/Streptomycin and 400 μg/ml G418 (Calbiochem).
For binding assays and membrane preparations the cell culture medium was removed, cells were washed with PBS. Crude membranes for radioligand binding experiments were prepared by scraping the cells off the dishes in ice cold 20 mM HEPES/0.1 mM KCl/pH 7.2. The cell suspension was homogenized on ice (Ultra turrax, 3×20 sec.) and the homogenate was spun for 10 min (1° C., 1000 g, OPTIMA, SW28, 2800 U/min). The supernatant was than centrifuged for 40 min at 100000 g (1° C., OPTIMA, SW28, 23000 U/min). The membrane pellet was resuspended in 20 mM HEPES/0.1 mM KCl/pH 7.2, frozen and stored at −80° C.
After thawing on the day of the assay, the membrane suspension was diluted further with 20 mM HEPES/0.1 mM KCl/pH 7.2.
The incubation mixture of 200 μl contained 1.5 nmol/l 3H-Dofetilide, optimized amount of membrane preparation, 20 mM HEPES/0.1 mM KCl/(pH 7.2) and inhibitor in 1% DMSO. Nonspecific binding was estimated in the presence of […] Dofetilide. The samples were incubated for 90 min. at RT.
Binding was terminated by filtration of the incubated membrane preparations using Filtermat B (Pharmacia, Uppsala Sweden) and a Micro Cell Harvester (Skatron, Lier, Norway). The Filtermat B had been presoaked with 1% polyethylenimine and carefully washed with 0.05 M Tris/HCl-buffer pH=7.7 after the filtration to separate free and bound radioactivity. The filters were counted in a scintillation counter (Betaplate 1205, Berthold, Wildbad, Germany) in order to determine the specific binding of [^3H]-Dofetilide.
The optimal amount of membrane preparation in the assay was determined and optimized for each membrane preparation separately in front of using the membranes in compound testing.
For pipetting of the incubation mixture we routinely use the robot Biomek2000 (Fa. Beckman).

rat NR1/NR2B receptor = rat NR1/NR2B receptor (Rattus norvegicus (Rat), UniProt P35439+Q00960); assay: RRNR2BB: inhibition of specific binding to the rat NR1/NR2B receptor; conditions: [3H]-Ifenprodil binding, rat brain membranes, Hill-plot 2-parameter-model
Procedure: RRNR2BB—Inhibition of Specific Binding to the Rat NR1/NR2B Receptor
Male Wistar rats (180 to 200 g) were killed by suffocation in a CO2 chamber for two minutes. Whole brains without cerebellum were removed and dissected on ice, placed into closed vials and stored at −70° C.
Membrane fractions were prepared and tested using standard techniques. At the time of the assay, 1 g of the brains were placed into 25 ml of 50 mM Tris/10 mM EDTA buffer, pH=7.1, (25 vol. per g of original tissue) and was homogenized for 30 sec at 20000 U/min with an Ultraturrax T25 (Jahnke & Kunkel, IKA-Labortechnik, Staufen, Germany). The homogenate was centrifuged at 4° C. for 10 min at 48000 g (OPTIMA L-70, Beckman, Palo Alto, Calif. 94304, USA). The supernatant was discarded and the pellet was homogenized on ice for 30 sec at 20000 U/min with an Ultraturrax and again centrifuged at 48000 g for 30 minutes at 4° C. The resultant pellet was resuspended in 25 ml of 50 mM Tris/10 mM EDTA buffer, homogenized for 30 sec with an Ultraturrax, aliquoted, frozen at −70° C. and stored until use
After thawing on the day of the assay, a 5 ml membrane aliquote was centrifuged at 48000 g for 30 min at 4° C. The pellet was resuspended in 5 ml of 5 mM Tris/1 mM EDTA buffer, pH=7.4, homogenized for 30 sec at 20000 U/min with an Ultraturrax and centrifuged at 48000 g for 30 min at 4° C. This step was repeated twice. The final pellet was homogenized in 5 ml of 5 mM Tris/mM EDTA buffer at 4° C. with an Ultraturrax and used for the Ifenprodil-binding assay.
Nonspecific binding was estimated in the presence of 10 M CP101.606. The samples were incubated for 60 min. at 4° C.
Binding was terminated by filtration of the incubated membrane preparations using Filtermat B (Pharmacia, Uppsala Sweden) and a Micro Cell Harvester (Skatron, Lier, Norway). The Filtermat B had been presoaked with 1% polyethylenimine and carefully washed with […] Tris/HCl-buffer pH=7.7 after the filtration to separate free and bound radioactivity.
For pipetting of the incubation mixture the robot Biomek2000 (Fa. Beckman) was used.
The IC50 values in the tables below were determined using the Hill-plot, 2-parameter-model.

Chain of hERG-receptor (Q12809 whole entry): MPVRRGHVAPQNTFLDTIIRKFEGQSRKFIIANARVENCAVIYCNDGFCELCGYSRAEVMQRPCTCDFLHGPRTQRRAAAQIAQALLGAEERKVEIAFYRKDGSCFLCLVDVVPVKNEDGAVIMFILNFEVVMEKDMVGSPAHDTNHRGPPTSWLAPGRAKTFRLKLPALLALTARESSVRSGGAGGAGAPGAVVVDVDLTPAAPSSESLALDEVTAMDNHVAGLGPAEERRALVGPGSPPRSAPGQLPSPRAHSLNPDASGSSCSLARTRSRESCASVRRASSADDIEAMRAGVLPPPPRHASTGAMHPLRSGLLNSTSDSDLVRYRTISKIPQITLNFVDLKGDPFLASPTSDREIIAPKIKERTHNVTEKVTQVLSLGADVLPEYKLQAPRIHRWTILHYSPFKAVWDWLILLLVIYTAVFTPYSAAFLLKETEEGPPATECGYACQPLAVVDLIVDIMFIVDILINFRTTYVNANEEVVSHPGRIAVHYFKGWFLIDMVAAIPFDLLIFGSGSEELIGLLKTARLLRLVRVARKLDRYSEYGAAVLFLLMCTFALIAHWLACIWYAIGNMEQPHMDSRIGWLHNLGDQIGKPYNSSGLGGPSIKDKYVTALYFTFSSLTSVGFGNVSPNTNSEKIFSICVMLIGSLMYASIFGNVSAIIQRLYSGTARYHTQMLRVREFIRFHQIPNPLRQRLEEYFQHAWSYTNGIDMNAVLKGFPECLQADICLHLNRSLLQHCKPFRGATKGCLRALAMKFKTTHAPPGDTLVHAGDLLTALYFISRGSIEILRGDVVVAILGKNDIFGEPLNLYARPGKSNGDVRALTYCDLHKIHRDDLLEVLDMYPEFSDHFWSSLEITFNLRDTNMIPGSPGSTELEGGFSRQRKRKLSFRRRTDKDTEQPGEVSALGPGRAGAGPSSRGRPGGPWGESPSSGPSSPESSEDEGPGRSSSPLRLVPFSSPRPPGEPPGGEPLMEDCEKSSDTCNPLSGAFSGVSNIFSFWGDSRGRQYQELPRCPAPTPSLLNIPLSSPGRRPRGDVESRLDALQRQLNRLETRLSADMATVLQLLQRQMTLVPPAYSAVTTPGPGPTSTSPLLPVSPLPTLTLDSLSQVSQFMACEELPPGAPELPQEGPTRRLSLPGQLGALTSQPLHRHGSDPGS
Chain of rat NR1/NR2B receptor (Q00960 27-1482, other chains not shown): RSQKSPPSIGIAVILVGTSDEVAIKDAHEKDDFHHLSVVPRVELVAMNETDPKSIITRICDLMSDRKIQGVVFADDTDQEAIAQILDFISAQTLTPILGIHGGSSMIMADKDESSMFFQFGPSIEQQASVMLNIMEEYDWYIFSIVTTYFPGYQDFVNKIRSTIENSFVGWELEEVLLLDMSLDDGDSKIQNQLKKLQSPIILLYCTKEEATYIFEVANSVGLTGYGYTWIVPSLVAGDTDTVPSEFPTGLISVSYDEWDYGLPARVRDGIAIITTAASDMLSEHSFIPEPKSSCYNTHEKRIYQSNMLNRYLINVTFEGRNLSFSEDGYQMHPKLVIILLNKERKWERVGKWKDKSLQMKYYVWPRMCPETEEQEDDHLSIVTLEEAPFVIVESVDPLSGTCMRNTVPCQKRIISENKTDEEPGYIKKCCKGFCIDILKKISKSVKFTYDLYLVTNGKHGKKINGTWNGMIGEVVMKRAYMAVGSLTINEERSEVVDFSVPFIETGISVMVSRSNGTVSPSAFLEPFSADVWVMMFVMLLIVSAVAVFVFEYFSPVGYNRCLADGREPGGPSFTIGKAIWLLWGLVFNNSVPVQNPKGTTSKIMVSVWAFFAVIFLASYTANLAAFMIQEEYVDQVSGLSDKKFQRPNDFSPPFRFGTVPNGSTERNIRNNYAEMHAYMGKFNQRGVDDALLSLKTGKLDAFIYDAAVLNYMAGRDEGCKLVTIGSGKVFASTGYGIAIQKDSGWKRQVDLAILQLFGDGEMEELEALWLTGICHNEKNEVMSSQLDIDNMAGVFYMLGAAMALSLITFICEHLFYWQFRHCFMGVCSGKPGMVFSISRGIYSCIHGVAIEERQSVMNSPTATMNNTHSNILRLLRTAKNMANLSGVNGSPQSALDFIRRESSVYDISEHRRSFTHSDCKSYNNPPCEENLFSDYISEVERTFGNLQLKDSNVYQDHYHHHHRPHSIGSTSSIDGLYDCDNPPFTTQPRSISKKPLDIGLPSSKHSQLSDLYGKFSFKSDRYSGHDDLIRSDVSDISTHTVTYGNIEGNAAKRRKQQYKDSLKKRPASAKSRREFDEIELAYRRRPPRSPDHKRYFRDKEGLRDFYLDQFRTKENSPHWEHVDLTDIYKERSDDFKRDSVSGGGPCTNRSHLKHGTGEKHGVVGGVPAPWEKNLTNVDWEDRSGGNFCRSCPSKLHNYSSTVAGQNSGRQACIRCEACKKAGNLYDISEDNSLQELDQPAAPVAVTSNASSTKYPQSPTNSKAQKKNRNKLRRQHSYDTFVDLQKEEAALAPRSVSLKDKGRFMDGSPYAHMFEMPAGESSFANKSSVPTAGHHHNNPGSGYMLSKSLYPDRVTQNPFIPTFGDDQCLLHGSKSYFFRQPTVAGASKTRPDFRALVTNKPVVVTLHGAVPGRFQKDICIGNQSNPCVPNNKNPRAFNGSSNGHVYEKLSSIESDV

Cc1nc(C)n(Cc2cn(-c3ccc(Cl)cc3)nn2)n1 [Example 1, 1-(4-Chloro-phenyl)-4-(3,5-dimethyl-[1,2,4]triazol-1-ylmethyl)-1H-[1,2,3]triazole]
IC50 (hERG-receptor): 419 µM | IC50 (rat NR1/NR2B receptor): > 10 µM

CCCc1ncnn1Cc1cn(-c2ccc(Cl)cc2)nn1 [Example 2, 1-(4-Chloro-phenyl)-4-(5-propyl-[1,2,4]triazol-1-ylmethyl)-1H-[1,2,3]triazole]
IC50 (hERG-receptor): 0.032 µM | IC50 (rat NR1/NR2B receptor): > 1 µM

CCCc1ncn(Cc2cn(-c3ccc(Cl)cc3)nn2)n1 [Example 3, 1-(4-Chloro-phenyl)-4-(3-propyl-[1,2,4]triazol-1-ylmethyl)-1H-[1,2,3]triazole]
IC50 (hERG-receptor): 0.305 µM | IC50 (rat NR1/NR2B receptor): > 10 µM

CC(C)c1ncn(Cc2cn(-c3ccc(Cl)cc3)nn2)n1 [Example 4, 1-(4-Chloro-phenyl)-4-(3-isopropyl-[1,2,4]triazol-1-ylmethyl)-1H-[1,2,3]triazole]
IC50 (rat NR1/NR2B receptor): > 10 µM

CCc1ncnn1Cc1cn(-c2ccc(Cl)cc2)nn1 [Example 5, 1-(4-Chloro-phenyl)-4-(5-ethyl-[1,2,4]triazol-1-ylmethyl)-1H-[1,2,3]triazole]
IC50 (hERG-receptor): 194 µM | IC50 (rat NR1/NR2B receptor): > 10 µM

CCc1ncn(Cc2cn(-c3ccc(Cl)cc3)nn2)n1 [Example 6, 1-(4-Chloro-phenyl)-4-(3-ethyl-[1,2,4]triazol-1-ylmethyl)-1H-[1,2,3]triazole]
IC50 (hERG-receptor): 54.9 µM | IC50 (rat NR1/NR2B receptor): > 10 µM

CC(C)c1ncnn1Cc1cn(-c2ccc(Cl)cc2)nn1 [Example 7, 1-(4-Chloro-phenyl)-4-(5-isopropyl-[1,2,4]triazol-1-ylmethyl)-1H-[1,2,3]triazole]
IC50 (hERG-receptor): > 100 µM | IC50 (rat NR1/NR2B receptor): > 10 µM

Cc1ncn(Cc2cn(-c3ccc(Cl)cc3)nn2)n1 [Example 9, 1-(4-Chloro-phenyl)-4-(3-methyl-[1,2,4]triazol-1-ylmethyl)-1H-[1,2,3]triazole]
IC50 (hERG-receptor): 46.9 µM | IC50 (rat NR1/NR2B receptor): > 10 µM

Clc1ccc(-n2cc(Cn3nc(C4CC4)nc3C3CC3)nn2)cc1 [Example 10, 1-(4-Chloro-phenyl)-4-(3,5-dicyclopropyl-[1,2,4]triazol-1-ylmethyl)-1-[1,2,3]triazole]
IC50 (hERG-receptor): 0.0039 µM | IC50 (rat NR1/NR2B receptor): > 10 µM

Clc1ccc(-n2cc(Cn3ncnc3C3CCC3)nn2)cc1 [Example 11, 1-(4-Chloro-phenyl)-4-(5-cyclobutyl-[1,2,4]triazol-1-ylmethyl)-1H-[1,2,3]triazole]
IC50 (hERG-receptor): > 100 µM | IC50 (rat NR1/NR2B receptor): > 1 µM

Clc1ccc(-n2cc(Cn3cnc(C4CCC4)n3)nn2)cc1 [Example 12, 1-(4-Chloro-phenyl)-4-(3-cyclobutyl-[1,2,4]triazol-1-ylmethyl)-1H-[1,2,3]triazole]
IC50 (hERG-receptor): 11.8 µM | IC50 (rat NR1/NR2B receptor): > 10 µM

Clc1ccc(-n2cc(Cn3cnc(C4CC4)n3)nn2)cc1 [Example 13, 1-(4-Chloro-phenyl)-4-(3-cyclopropyl-[1,2,4]triazol-1-ylmethyl)-1H-[1,2,3]triazole]
IC50 (hERG-receptor): 45.1 µM | IC50 (rat NR1/NR2B receptor): > 10 µM

Clc1ccc(-n2cc(Cn3cnc(C4CCCC4)n3)nn2)cc1 [Example 15, 1-(4-Chloro-phenyl)-4-(3-cyclopentyl-[1,2,4]triazol-1-ylmethyl)-1H-[1,2,3]triazole]
IC50 (hERG-receptor): 87.9 µM | IC50 (rat NR1/NR2B receptor): > 10 µM

Clc1ccc(-n2cc(Cn3ncnc3C3CC3)nn2)cc1 [Example 16, 1-(4-Chloro-phenyl)-4-(5-cyclopropyl-[1,2,4]triazol-1-ylmethyl)-1H-[1,2,3]triazole]
IC50 (hERG-receptor): > 100 µM | IC50 (rat NR1/NR2B receptor): > 10 µM

FC(F)(F)c1ncn(Cc2cn(-c3ccc(Cl)cc3)nn2)n1 [Example 17, 1-(4-Chloro-phenyl)-4-(3-trifluoromethyl-[1,2,4]triazol-1-ylmethyl)-1H-[1,2,3]triazole]
IC50 (hERG-receptor): 25.6 µM | IC50 (rat NR1/NR2B receptor): > 10 µM

CC(C)(C)c1ncnn1Cc1cn(-c2ccc(Cl)cc2)nn1 [Example 19, 4-(5-tert-Butyl-[1,2,4]triazol-1-ylmethyl)-1-(4-chloro-phenyl)-1H-[1,2,3]triazole]
IC50 (hERG-receptor): 33.8 µM | IC50 (rat NR1/NR2B receptor): > 10 µM

CC(C)(C)c1ncn(Cc2cn(-c3ccc(Cl)cc3)nn2)n1 [Example 20, 4-(3-tert-Butyl-[1,2,4]triazol-1-ylmethyl)-1-(4-chloro-phenyl)-1H-[1,2,3]triazole]
IC50 (hERG-receptor): 35.6 µM | IC50 (rat NR1/NR2B receptor): > 10 µM

Cc1nc(C2CCC2)nn1Cc1cn(-c2ccc(Cl)cc2)nn1 [Example 22, 1-(4-Chloro-phenyl)-4-(3-cyclobutyl-5-methyl-[1,2,4]triazol-1-ylmethyl)-1H-[1,2,3]triazole]
IC50 (rat NR1/NR2B receptor): > 10 µM

Clc1ccc(-n2cc(Cn3ccnc3Cl)nn2)cc1 [Example 26, 4-(2-Chloro-imidazol-1-ylmethyl)-1-(4-chloro-phenyl)-1H-[1,2,3]triazole]
IC50 (hERG-receptor): 12.1 µM

CC(C)(C)c1nccn1Cc1cn(-c2ccc(Cl)cc2)nn1 [Example 30, 4-(2-tert-Butyl-imidazol-1-ylmethyl)-1-(4-chloro-phenyl)-1H-[1,2,3]triazole]
IC50 (hERG-receptor): 3.58 µM

CCCc1nccn1Cc1cn(-c2ccc(F)c(Cl)c2)nn1 [Example 43, 1-(3-Chloro-4-fluoro-phenyl)-4-(2-propyl-imidazol-1-ylmethyl)-1H-[1,2,3]triazole]
IC50 (hERG-receptor): 2.72 µM

Cc1nc(CO)n(Cc2cn(-c3ccccc3)nn2)n1 [Example 47, 4-(5-Hydroxymethyl-3-methyl-[1,2,4]triazol-1-ylmethyl)-1-phenyl-1H-[1,2,3]triazole]
IC50 (rat NR1/NR2B receptor): > 10 µM

Cc1nc(CO)nn1Cc1cn(-c2ccccc2)nn1 [Example 48, 4-(3-Hydroxymethyl-5-methyl-[1,2,4]triazol-1-ylmethyl)-1-phenyl-1H-[1,2,3]triazole]
IC50 (rat NR1/NR2B receptor): > 10 µM

Fc1cc(-n2cc(Cn3ccnc3C3CC3)nn2)ccc1Cl [Example 61, 1-(4-Chloro-3-fluoro-phenyl)-4-(2-cyclopropyl-imidazol-1-ylmethyl)-1H-[1,2,3]triazole]
IC50 (hERG-receptor): 3.62 µM

Cc1cc(-n2cc(Cn3ccnc3C3CC3)nn2)ccc1Cl [Example 65, 1-(4-Chloro-3-methyl-phenyl)-4-(2-cyclopropyl-imidazol-1-ylmethyl)-1H-[1,2,3]triazole]
IC50 (hERG-receptor): 3.87 µM

CC(C)c1nccn1Cc1cn(-c2cccc(OC(F)(F)F)c2)nn1 [Example 73, 4-(2-Isopropyl-imidazol-1-ylmethyl)-1-(3-trifluoromethoxy-phenyl)-1H-[1,2,3]triazole]
IC50 (hERG-receptor): 13 µM

CS(=O)(=O)c1cccc(-n2cc(Cn3ccnc3CCO)nn2)c1 [Example 79, 4-[2-(2-Hydroxy-ethyl)-imidazol-1-ylmethyl]-1-(3-methanesulfonyl-phenyl)-1H-[1,2,3]triazole]
IC50 (hERG-receptor): > 100 µM

CCCCc1nccn1Cc1cn(-c2ccc(F)c(C(F)F)c2)nn1 [Example 86, 1-(3-Difluoromethyl-4-fluoro-phenyl)-4-(2-butyl-imidazol-1-ylmethyl)-1H-[1,2,3]triazole]
IC50 (hERG-receptor): 3.24 µM

OCCc1nccn1Cc1cn(-c2ccc(Cl)c(OC(F)F)c2)nn1 [Example 98, 1-(4-Chloro-3-difluoromethoxy-phenyl)-4-[2-(2-hydroxy-ethyl)-imidazol-1-ylmethyl]-1H-[1,2,3]triazole]
IC50 (hERG-receptor): 17.1 µM
